Laboratory results taken from patent publication US8188078B2 (Sanofi-Aventis, priority 2007, dated 2012).

Legend:
c-MET = target: T1, c-MET (Homo sapiens, UniProt P08581); assay: Test A: HTRF Met test in 96-well format; type: biochemical
T1 construct: The recombinant DNA His-Tev-MET (956-1390) in pFastBac(Invitrogen); His (N, cleaved yes); Tev (TEV protease site) (N, cleaved yes); made in house; host or cells: SF21 insect cells (baculovirus, pFastBac)
Procedure: I) Expression and Purification of MET, Cytoplasmic Domain
The recombinant DNA His-Tev-MET (956-1390) in pFastBac(Invitrogen) is transfected in insect cells and after several stages of viral amplification, the final stock of baculovirus is tested for expression of the protein of interest.
After infection for 72 h at 27° C. with the recombinant virus, the SF21 cell cultures are harvested by centrifugation and the cellular deposits are stored at −80° C.
The cellular deposits are resuspended in the lysis buffer (buffer A [50 mM HEPES, pH 7.5, 250 mM NaCl, Glycerol 10%, TECP 1 mM]; +cocktail of protease inhibitors Roche Diagnostics without EDTA, ref 1873580), stirred at 4° C. until homogeneous, then lysed mechanically using apparatus of the “Dounce” type.
After centrifugation, the lysis supernatant is incubated for 2 h at 4° C. with Nickel Chelate resin (His-Trap 6 Fast Flow™, GE HealthCare). After washing with 20 volumes of Tp A, the suspension is packed in a column, and the proteins are eluted with a gradient of buffer B ([…]+290 mM imidazole).
The fractions containing the protein of interest with a view to electrophoretic analysis (SDS PAGE) are collected, concentrated by ultrafiltration (cut-off 10 kDa) and injected in an exclusion chromatography column (Superdex™ 200, GE HealthCare) equilibrated with buffer A.
After enzymatic cleavage of the tag Histidine, the protein is reinjected in a new IMAC Nickel Chelate chromatography column (His-Trap 6 Fast Flow™, GE HealthCare) equilibrated with Buffer A. The fractions eluted with a gradient of buffer B and containing the protein of interest after electrophoresis (SDS PAGE), are finally collected and stored at −80° C.
For the production of autophosphorylated protein, the preceding fractions are incubated for 1 h at room temperature after adding ATP 2 mM, MgCl2 2 mM, and Na3VO4 4 mM. After stopping the reaction with 5 mM of EDTA, the reaction mixture is injected in a HiPrep desalting column (GE HealthCare) equilibrated beforehand with buffer A+Na3VO4 4 mM; the fractions containing the protein of interest (SDS PAGE analysis) are collected and stored at −80° C. The degree of phosphorylation is verified by mass spectrometry (LC-MS), and by peptide mapping.
A) HTRF Met test in 96-well format
In a final volume of 50 μl of enzymatic reaction mixture, final c-MET 5 nM is incubated in the presence of the molecule to be tested (for a final concentration range from 0.17 nM to 10 μM, final DMSO 3%) in buffer MOPS 10 mM pH 7.4, DTT 1 mM, Tween 20 0.01%. The reaction is initiated by the substrate solution to obtain the final concentrations of poly-(GAT) 1 μg/ml, ATP 10 μM and MgCl2 5 mM. After incubation for 10 min at room temperature, the reaction is stopped with a mix of 30 μl to obtain a final solution of Hepes 50 mM pH 7.5, potassium fluoride 500 mM, BSA 0.1% and EDTA 133 mM in the presence of 80 ng Streptavidin 61SAXLB Cis-Bio Int. and 18 ng anti-phosphotyrosine Mab PT66-Europium Cryptate per well. After 2 hours of incubation at room temperature, reading is carried out at 2 wavelengths 620 nm and 665 nm in a reader for the TRACE/HTRF technique and the percentage inhibition is calculated according to the 665/620 ratios.

RON = RON (Homo sapiens, UniProt Q04912); assay: Test B: HTRF RON test in 96-well format; type: biochemical
RON, sequence (Q04912 25-1400): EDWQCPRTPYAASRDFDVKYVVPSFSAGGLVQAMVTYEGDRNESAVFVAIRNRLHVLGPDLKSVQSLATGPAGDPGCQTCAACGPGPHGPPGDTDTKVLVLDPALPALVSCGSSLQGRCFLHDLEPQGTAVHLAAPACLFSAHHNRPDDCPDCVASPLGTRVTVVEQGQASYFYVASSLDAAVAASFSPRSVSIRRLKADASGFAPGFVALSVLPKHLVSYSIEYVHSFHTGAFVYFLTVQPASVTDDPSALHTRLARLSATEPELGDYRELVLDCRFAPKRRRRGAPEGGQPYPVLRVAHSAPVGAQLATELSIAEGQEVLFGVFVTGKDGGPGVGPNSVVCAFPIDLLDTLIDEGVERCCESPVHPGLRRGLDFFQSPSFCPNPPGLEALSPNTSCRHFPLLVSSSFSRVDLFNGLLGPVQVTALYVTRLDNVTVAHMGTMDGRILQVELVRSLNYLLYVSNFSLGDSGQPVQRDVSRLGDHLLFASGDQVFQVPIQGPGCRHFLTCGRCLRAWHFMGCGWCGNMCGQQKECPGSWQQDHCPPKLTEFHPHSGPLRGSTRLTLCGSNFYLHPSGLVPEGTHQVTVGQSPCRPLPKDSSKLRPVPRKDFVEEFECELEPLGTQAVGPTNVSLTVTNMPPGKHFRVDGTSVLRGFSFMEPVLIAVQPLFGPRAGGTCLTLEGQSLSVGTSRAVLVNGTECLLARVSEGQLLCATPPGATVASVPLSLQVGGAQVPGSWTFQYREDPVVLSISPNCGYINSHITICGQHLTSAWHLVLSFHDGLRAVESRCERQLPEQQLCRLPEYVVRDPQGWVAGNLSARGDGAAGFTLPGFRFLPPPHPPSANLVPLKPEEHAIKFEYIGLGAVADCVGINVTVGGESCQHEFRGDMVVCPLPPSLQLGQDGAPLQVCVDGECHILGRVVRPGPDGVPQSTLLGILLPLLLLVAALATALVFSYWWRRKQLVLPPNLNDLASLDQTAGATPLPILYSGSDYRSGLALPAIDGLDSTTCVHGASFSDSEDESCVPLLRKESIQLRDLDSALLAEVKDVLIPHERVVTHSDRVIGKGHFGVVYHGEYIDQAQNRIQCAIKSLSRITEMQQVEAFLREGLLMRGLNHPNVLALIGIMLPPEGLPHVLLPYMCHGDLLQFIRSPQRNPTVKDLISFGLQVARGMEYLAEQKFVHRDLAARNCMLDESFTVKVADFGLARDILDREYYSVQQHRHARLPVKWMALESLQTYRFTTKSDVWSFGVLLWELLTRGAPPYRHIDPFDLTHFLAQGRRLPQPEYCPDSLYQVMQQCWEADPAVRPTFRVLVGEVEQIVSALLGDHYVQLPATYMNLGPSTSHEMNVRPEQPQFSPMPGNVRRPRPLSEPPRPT
Procedure: B) HTRF RON Test in 96-Well Format
The inhibitory potency (IC50) of molecules on the enzymatic activity of kinase phosphorylation RON is determined by the HTRF technique. The activity of the kinase is evaluated by measuring the phosphorylation of the substrate polyGAT by the enzyme, in the presence of ATP.
Final RON 5 nM is incubated in the presence of the molecule to be tested (for a final concentration range from 0.17 nM to 10 μM, final DMSO 3%) in buffer MOPS 10 mM pH 7, DTT 1 mM, Tween 20 0.01%. This pre-incubation is performed in 96 half-well black plates in a volume of 35 μl for 30 minutes at room temperature.
The reaction is initiated by adding 15 μl of a mixture of substrates constituted of biotinylated poly-(GAT) 1 μg/ml final and ATP 10 μM final in the presence of MgCl2 5 mM final for a final volume of 50 μl.
After incubation for 30 min at room temperature, the reaction is stopped with 30 μl of a mixture of Hepes 100 mM final pH 7, potassium fluoride 400 mM final, BSA 0.1% and EDTA 133 mM in the presence of 80 ng per well of antibodies Streptavidin ITS-XL665 Cis-Bio Int. and 18 ng per well of anti-phosphotyrosine PT66 labelled with europium cryptate.
After incubation for 2 hours at room temperature, reading is carried out at 2 wavelengths 620 nm and 665 nm in a Genios TECAN reader for the TRACE/HTRF technique and the percentage inhibition is calculated according to the 665/620 ratios.

MKN45 cells = assay: Test D: cellular proliferation by 14C-thymidine pulse, MKN45 cells; type: cell-based; details: Homo sapiens, MKN-45, cellular proliferation by 14C-thymidine pulse; cell line not stated (HCT116 or MKN45)
Procedure: D) Measurement of Cellular Proliferation by 14C-Thymidine Pulse
The cells are sown in Cytostar 96-well plates under 180 μl for 4 hours at 37° C. and 5% CO2: The HCT116 cells at a rate of 2500 cells per well in DMEM medium+10% foetal calf serum+1% of L-glutamine and the MKN45 cells at a rate of 7500 cells per well in RPMI medium+10% foetal calf serum+1% of L-glutamine. After said incubation for 4 hours, the products are added under 10 μl in 20-times concentrated solution according to the method of dilution stated for ELISA. The products are tested at 10 concentrations in duplicate from 10000 nM to 0.3 nM in steps of 3.
After treatment for 72 h, add 10 μl of 14C-thymidine at 10 μCi/ml to obtain 0.1 μCi per well. The incorporation of 14C-thymidine is measured on a Micro-Beta (Perkin-Elmer) after 24 hours of pulse and 96 h of treatment.
All the stages of the test are automated on the BIOMEK 2000 or TECAN stations.

MET = target: T2, MET (Homo sapiens, UniProt P08581); assay: Test C: inhibition of the autophosphorylation of MET, ELISA technique (pppY1230, 1234, 1235), MKN45 cells; type: cell-based
T2 construct: endogenous in cells; host or cells: MKN45 cells
T2 sequence (P08581 25-1390): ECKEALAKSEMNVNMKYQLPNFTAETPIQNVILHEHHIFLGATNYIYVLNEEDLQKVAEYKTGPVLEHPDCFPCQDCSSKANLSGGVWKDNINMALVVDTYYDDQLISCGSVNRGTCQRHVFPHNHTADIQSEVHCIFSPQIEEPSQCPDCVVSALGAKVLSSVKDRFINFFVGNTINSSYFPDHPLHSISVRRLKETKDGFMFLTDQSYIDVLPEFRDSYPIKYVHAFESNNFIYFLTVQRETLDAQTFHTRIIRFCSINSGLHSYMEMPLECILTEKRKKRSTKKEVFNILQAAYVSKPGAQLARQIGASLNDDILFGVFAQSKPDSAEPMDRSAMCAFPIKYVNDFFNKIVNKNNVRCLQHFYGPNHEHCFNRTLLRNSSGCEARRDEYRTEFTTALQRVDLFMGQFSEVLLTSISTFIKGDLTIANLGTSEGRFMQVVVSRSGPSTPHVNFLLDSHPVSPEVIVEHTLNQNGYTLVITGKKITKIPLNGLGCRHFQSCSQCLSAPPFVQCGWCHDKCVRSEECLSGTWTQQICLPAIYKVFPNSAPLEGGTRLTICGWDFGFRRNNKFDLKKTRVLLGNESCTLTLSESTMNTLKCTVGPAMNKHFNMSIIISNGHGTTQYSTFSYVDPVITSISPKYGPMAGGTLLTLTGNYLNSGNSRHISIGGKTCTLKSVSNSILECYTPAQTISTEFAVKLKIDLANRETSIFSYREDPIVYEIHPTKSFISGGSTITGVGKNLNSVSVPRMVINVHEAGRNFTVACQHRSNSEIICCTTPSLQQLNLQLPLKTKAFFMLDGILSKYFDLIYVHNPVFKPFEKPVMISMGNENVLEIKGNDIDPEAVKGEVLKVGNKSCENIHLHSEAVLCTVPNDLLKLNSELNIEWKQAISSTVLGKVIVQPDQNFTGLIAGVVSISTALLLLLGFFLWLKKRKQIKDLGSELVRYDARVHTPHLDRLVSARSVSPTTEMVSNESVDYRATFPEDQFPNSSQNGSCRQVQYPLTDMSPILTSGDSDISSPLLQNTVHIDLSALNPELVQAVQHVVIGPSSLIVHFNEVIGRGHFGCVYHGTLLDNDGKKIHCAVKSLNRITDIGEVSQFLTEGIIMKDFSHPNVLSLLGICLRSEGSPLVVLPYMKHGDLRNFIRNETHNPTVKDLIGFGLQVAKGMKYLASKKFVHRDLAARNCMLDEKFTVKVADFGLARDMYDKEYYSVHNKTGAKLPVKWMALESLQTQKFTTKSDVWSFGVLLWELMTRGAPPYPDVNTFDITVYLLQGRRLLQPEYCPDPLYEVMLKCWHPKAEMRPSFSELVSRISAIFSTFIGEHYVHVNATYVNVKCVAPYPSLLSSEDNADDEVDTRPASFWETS
Procedure: C) Inhibition of the Autophosphorylation of MET; ELISA Technique (pppY1230, 1234, 1235)
a) Cellular lysates: Sow the MKN45 cells in a 96-well plate (Cell coat BD polylysine) at 20 000 cells/well under 200 μl of medium RPMI+10% FCS+1% L-glutamine. Leave to adhere to the incubator for 24 h.
The cells are treated on the day after sowing with the products at 6 concentrations in duplicate for 1 h. At least 3 control wells are treated with the same amount of final DMSO.
Dilution of the products: Stock at 10 mM in pure DMSO—range from 10 mM to 30 μM with steps of 3 of pure DMSO—Intermediate dilutions to 1/50 in culture medium then taking of 10 μl added directly to the cells (200 μl): final range from 10000 to 30 nM.
At the end of incubation, carefully remove the supernatant and rinse with 200 μl of PBS. Then put 100 μl of lysis buffer directly in the wells on ice and incubate at 4° C. for 30 minutes. Lysis buffer: 10 mM Tris, HCl pH7.4, 100 mM NaCl, 1 mM EDTA, 1 mM EGTA, 1% Triton X-100, 10% glycerol, 0.1% SDS, 0.5% deoxycholate, 20 mM NaF, 2 mM Na3VO4, 1 mM PMSF and antiprotease cocktail.
The 100 μl of lysates are transferred to a V-bottomed polypropylene plate and ELISA is performed next or the plate is frozen at −80° C.
b) ELISA PhosphoMET BioSource Kit KH00281
In each well of the plate from the kit, add 70 μl of dilution buffer from the kit+30 μL of cell lysate or 30 μl of lysis buffer for the blank. Incubate for 2 h at room temperature, stirring gently.
Rinse the wells 4 times with 400 μl of washing buffer from the kit. Incubate with 100 μl of anti-phospho MET antibodies for 1 h at room temperature.
Rinse the wells 4 times with 400 μl of washing buffer from the kit. Incubate with 100 μl of anti-rabbit HRP antibodies for 30 minutes at room temperature (except for the wells with chromogen only).
Rinse the wells 4 times with 400 μl of washing buffer from the kit. Add 100 μL of chromogen and incubate for 30 minutes in the dark at room temperature.
Stop the reaction with 100 μl of stop solution. Read at once at […] 0.1 second in the Wallac Victor plate reader.
The products of formula (I) as defined above show cellular activity in this test between 10 nM and 10 μM.

T1 sequence (P08581 956-1390): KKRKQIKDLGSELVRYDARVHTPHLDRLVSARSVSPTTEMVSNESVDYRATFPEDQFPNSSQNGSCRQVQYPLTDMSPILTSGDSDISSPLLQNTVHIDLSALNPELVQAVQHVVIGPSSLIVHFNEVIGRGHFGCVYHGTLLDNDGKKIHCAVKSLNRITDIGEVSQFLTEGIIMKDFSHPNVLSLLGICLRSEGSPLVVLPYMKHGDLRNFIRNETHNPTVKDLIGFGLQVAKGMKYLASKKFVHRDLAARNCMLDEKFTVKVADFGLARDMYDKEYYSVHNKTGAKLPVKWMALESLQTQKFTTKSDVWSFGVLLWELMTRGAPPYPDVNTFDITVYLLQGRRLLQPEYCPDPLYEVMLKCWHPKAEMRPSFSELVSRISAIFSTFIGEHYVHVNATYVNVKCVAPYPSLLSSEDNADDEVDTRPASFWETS

SMILES	IC50 (c-MET)	IC50 (RON)	IC50 (MKN45 cells)	melting point	IC50 (MET)
CC(Oc1ccc2nc(NC(=O)NCCN3CCOCC3)sc2c1)c1cc(F)cc(F)c1 (stereo not drawn) [Example 62, 1-{6-[1-(3,5-difluorophenyl)ethoxy]-1,3-benzothiazol-2-yl}-3-(2-morpholin-4-ylethyl)urea]	100 to 10000 nM	500 to 10000 nM	> 10000 nM	179 °C	
O=C(NCCCN1CCOCC1)Nc1nc2ccc(OCc3c(Cl)cccc3Cl)cc2s1 [Example 11, 1-{6-[(2,6-dichlorobenzyl)oxy]-1,3-benzothiazol-2-yl}-3-(3-morpholin-4-ylpropyl)urea]	< 100 nM	500 to 10000 nM	> 10000 nM	162 to 166 °C	
O=C(NCCN1CCOCC1)Nc1nc2ccc(OCc3c(Cl)cccc3Cl)cc2[nH]1 [Example 1, 1-{6-[(2,6-dichlorobenzyl)oxy]-1H-benzimidazol-2-yl}-3-(2-morpholin-4-ylethyl)urea]	< 100 nM	500 to 10000 nM	> 10000 nM	256 to 259 °C	
CC(Oc1cc2sc(N)nc2cc1F)c1c(Cl)ccc(F)c1Cl (stereo not drawn) [Example 30, 6-[1-(2,6-dichloro-3-fluorophenyl)ethoxy]-5-fluoro-1,3-benzothiazol-2-amine]	< 100 nM	500 to 10000 nM	> 10000 nM	223 °C	
O=C(NCCN1CCOCC1)Nc1nc2ccc(OCc3c(F)cccc3Cl)cc2s1 [Example 15, 1-{6-[(2-chloro-6-fluorobenzyl)oxy]-1,3-benzothiazol-2-yl}-3-(2-morpholin-4-ylethyl)urea]	< 100 nM	500 to 10000 nM	500 to 10000 nM	210 °C	
O=C(NCCN1CCOCC1)Nc1nc2ccc(OCc3c(F)cccc3F)cc2s1 [Example 13, 1-{6-[(2,6-difluorobenzyl)oxy]-1,3-benzothiazol-2-yl}-3-(2-morpholin-4-ylethyl)urea]	< 100 nM	500 to 10000 nM	> 10000 nM	219 °C	
Cc1cc2nc(NC(=O)NCCN3CCOCC3)sc2cc1OC(C)c1c(Cl)ccc(F)c1Cl (stereo not drawn) [Example 107, 1-{6-[1-(2,6-dichloro-3-fluorophenyl)ethoxy]-5-methyl-1,3-benzothiazol-2-yl}-3-[2-(morpholin-4-yl)ethyl]urea]	< 100 nM		500 to 10000 nM	270 to 276 °C	< 500 nM
CC(Oc1cc2sc(NC(=O)NCCN3CCCCC3)nc2cc1F)c1c(Cl)ccc(F)c1Cl (stereo not drawn) [Example 80, 1-{6-[1-(2,6-dichloro-3-fluorophenyl)ethoxy]-5-fluoro-1,3-benzothiazol-2-yl}-3-[2-(piperidin-1-yl)ethyl]urea]	< 100 nM	500 to 10000 nM	500 to 10000 nM	186 to 195 °C	
CC(Oc1ccc2nc(NC(=O)NCCN3CCOCC3)sc2c1)c1ccccc1 (stereo not drawn) [Example 14, 1-(2-morpholin-4-ylethyl)-3-[6-(1-phenylethoxy)-1,3-benzothiazol-2-yl]urea]	100 to 10000 nM	500 to 10000 nM	> 10000 nM	161 °C	
